According to patent US12274785B2, “Sustained-release pharmaceutical compositions comprising an immunomodulating agent and uses thereof” (TAIWAN LIPOSOME CO., LTD., priority 2018, dated 2025):
Structures can show the parent of a compound that is named as a salt.

Tests used:
[1] = Drug loading of liposomes: drug to lipid molar ratio and encapsulation efficiency (UV/Vis); format: physicochemical
Procedure: (§1) Empty liposomes were prepared by a lipid film hydration-extrusion method. HSPC, cholesterol, and DSPE-PEG2000 (mole percent 59.5/39.6/0.9) were dissolved in chloroform and a thin lipid film was formed by removing the organic solvent under vacuum in a rotary evaporator. The dry lipid film was hydrated in 300 mM ammonium sulfate at 60° C. for 30 min and the empty liposomes were formed with ammonium sulfate encapsulated in the aqueous core. After six freeze-thaw cycles between liquid nitrogen and water at 60° C., the empty liposomes were subsequently extruded ten times through polycarbonate filter membranes with a pore size of 0.2 μm. Unencapsulated ammonium sulfate was removed by dialysis against a 9.4% sucrose solution.
(§2) A reaction mixture containing 7.8 mg/mL of fingolimod hydrochloride (MedChem Express), 20.7 mM of lipids of empty liposomes and 50 mM histidine buffer (pH 7) was incubated at 60° C. for 15 min. The unencapsulated fingolimod hydrochloride was separated by a Sephadex™ G-50 Fine gel (GE Healthcare) or dialysis bag (Spectrum Labs) against a 9.4% sucrose solution to obtain the liposomal fingolimod formulation. The concentrations of the encapsulated fingolimod hydrochloride and the lipid of the liposomal fingolimod formulation were measured using an ultraviolet/visible (UV/Vis) spectrophotometer to calculate the drug to lipid molar ratio (D/L) of the liposomal fingolimod formulation.
(§3) The encapsulation efficiency was calculated by the drug to lipid molar ratio (D/L) of the fingolimod hydrochloride encapsulated liposomes compared to the nominal D/L of reaction mixture, which was calculated by dividing the concentration of fingolimod hydrochloride by the lipid concentration of empty liposome. The particle size distribution was measured by a dynamic light scattering instrument (Zetasizer Nano-ZS90, Malvern).
as §1, with “DPPG” for “DSPE-PEG2000”
as §2, with “7.2” for “7.8”, “ozanimod (DC Chemicals), 20.6” for “fingolimod hydrochloride (MedChem Express), 20.7”, “6.5)” for “7)”, “ozanimod” for “fingolimod hydrochloride”, “ozanimod” for “fingolimod”
as §3, with “ozanimod” for “fingolimod hydrochloride”
The liposome formulations were prepared according to Example 1, with the following trapping agents: (1) 75 mM of triethylammonium sucrose octasulfate, (2) 300 mM of ammonium sulfate, (3) 200 mM ammonium phosphate and (4) 7.0 mM of dextran sulfate.

[2] = Particle size distribution by dynamic light scattering; format: physicochemical
Procedure: as §3
as §3, with “ozanimod” for “fingolimod hydrochloride”

[3] = In vitro release through dialysis bag with fetal bovine serum; format: physicochemical; details: fetal bovine serum mixture, PBS pH 7.4 with 0.06N HCl, 37 °C
Procedure: To setup an in vitro release system, 0.5 mL of liposomal fingolimod formulation prepared according to Example 1 and 0.5 mL of free fingolimod hydrochloride were each mixed with 0.5 mL of fetal bovine serum. The free fingolimod/serum mixture and liposomal fingolimod/serum mixture were placed in separate dialysis bags (Spectra/Pro®6 dialysis membrane, MWCO 50 kDa, Spectrum Labs) and both ends of the dialysis bags were sealed. Each dialysis bag was immersed in 15 mL PBS at pH 7.4, containing 0.06N HCl, in a 50-mL centrifuge tube and incubated at 37±1° C. water bath. At designated time points after incubation (1, 2, 4, 8 and 24 hours), 0.5 mL aliquot from the 15-mL PBS was sampled and 0.5 mL of fresh PBS was added to replenish the sampling aliquot each time. Drug concentrations of the sampling aliquots at each time point were analyzed using HPLC to create the in vitro release profile of the tested formulations.

[4] = Pharmacokinetics study of liposomal fingolimod in rats; format: in vivo, Sprague-Dawley rats; details: IV 5 mg/Kg
Procedure: An in vivo PK evaluation of the liposomal fingolimod formulation was performed using 7- to 8-week-old female Sprague-Dawley rats. The rats were housed in a holding room which operated on a 12-hr light/12-hr dark circadian cycle with free access to water and food.
The rats were divided into three groups (n=4 in each group), one group received intravenous (IV) injection of 5 mg/Kg of free fingolimod hydrochloride, prepared by dissolving the fingolimod hydrochloride in a 9.4% sucrose solution containing 5% dimethyl sulfoxide with a final concentration of 2.00 mg/mL. The second group received intravenous (IV) injection of 5 mg/Kg of liposomal fingolimod formulation prepared according to Example 1. The third group received subcutaneous (SC) injection of 5 mg/Kg of liposomal fingolimod formulation prepared according to Example 1. Blood samples were collected at 5, 15 min, 1, 2, 4, 8, 24, 48, 72, and 96 hours post-injection. Plasma samples were obtained by centrifugation, kept frozen at -80° C. and analyzed using a noncompartmental analysis model in PKSolver (Comput. Methods Programs Biomed. 2010; 99(3):306-314).

[5] = Drug loading of liposomes: drug to lipid molar ratio and encapsulation efficiency (UV/Vis); format: physicochemical; details: fingolimod; HSPC/cholesterol/DPPG (59.5/39.6/0.9); trapping agent 2: 300 mM ammonium sulfate
[6] = DSPC/cholesterol/DSPE-PEG2000 (59.5/39.6/0.9), trapping agent 4: 7.0 mM dextran sulfate
[7] = HSPC/cholesterol (60/40), trapping agent 1: 75 mM triethylammonium sucrose octasulfate
[8] = ozanimod, HSPC/cholesterol/DPPG (59.5/39.6/0.9), trapping agent 2: 300 mM ammonium sulfate
[9] = DMPC/cholesterol/DSPE-PEG2000 (59.5/40/0.5), trapping agent 2: 300 mM ammonium sulfate
[10] = DPPC/cholesterol/DSPE-PEG2000 (55.9/38.7/5.4), trapping agent 3: 200 mM ammonium phosphate
[11] = HSPC/cholesterol/DSPE-PEG2000 (59.5/39.6/0.9), trapping agent 1: 75 mM triethylammonium sucrose octasulfate
[12] = HSPC/cholesterol/DSPE-PEG2000 (59.5/39.6/0.9), trapping agent 2: 300 mM ammonium sulfate

## CC(C)Oc1ccc(-c2nc(-c3cccc4c3CC[C@@H]4NCCO)no2)cc1C#N [Ozanimod, ozanimod]
[1]; [6]
  Encapsulation Efficiency: 79%
  Purified D/L: 0.35 mole/mole
[1]; [7]
  Encapsulation Efficiency: 100%
  Purified D/L: 0.49 mole/mole
[1]; [8]
  Encapsulation Efficiency: 100%
  Purified D/L: 0.87 mole/mole
[2]; [6]
  Average Particle Size: 364.2 nm
[2]; [7]
  Average Particle Size: 215.2 nm
[2]; [8]
  Average Particle Size: 186.7 nm

## CCCCCCCCc1ccc(CCC(N)(CO)CO)cc1 [Fingolimod HCl, fingolimod hydrochloride]
[1]; [9]
  Encapsulation Efficiency: 100%
  Purified D/L: 1.13 mole/mole
[1]; [10]
  Encapsulation Efficiency: 99%
  Purified D/L: 0.88 mole/mole
[1]; [11]
  Encapsulation Efficiency: 100%
  Purified D/L: 1.28 mole/mole
[1]; [12]
  Encapsulation Efficiency: 100%
  Purified D/L: 1.11 mole/mole
[2]; [9]
  Average Particle Size: 154.5 nm
[2]; [10]
  Average Particle Size: 143.1 nm
[2]; [11]
  Average Particle Size: 288.0 nm
[2]; [12]
  Average Particle Size: 162.1 nm
[2]; fingolimod, HSPC/cholesterol/DPPG (59.5/39.6/0.9), trapping agent 2: 300 mM ammonium sulfate
  Average Particle Size: 191.4 nm
[3]; 4 hours
  fingolimod released through the dialysis bag within 4 hours: ~80%
[3]; 24 hours
  release through the dialysis bag over 24 hours: > 80%
[4]
  time after which eliminated from the circulation: about 70 hours
[4]; 96 hours post-injection
  AUC0-t/AUC0-inf ratio: approximately 100%
[5]
  Encapsulation Efficiency: 100%
  Purified D/L: 1.01 mole/mole
